In publication PMC11090211 (Chemico-biological interactions, 2024) one finds Ki data, which are given here for one compound.

In test [1] the target is H48Q yeast alcohol dehydrogenase. The following applies: read-out: Ki, CF3CH2OH; pH 7.3, 30 °C, 83 mM potassium phosphate, 40 mM KCl; cited from earlier work.
The target in test [2] is wild-type yeast alcohol dehydrogenase. Conditions: read-out: Ki, CF3CH2OH; pH 7.3, 30 °C, 83 mM potassium phosphate, 40 mM KCl; cited from earlier work.
Test [3] deals with H44R/H48Q yeast alcohol dehydrogenase (Saccharomyces cerevisiae, UniProt P00330, H45R/H49Q). The experiment in a line: biochemical.
For test [4], the target named is H44R yeast alcohol dehydrogenase. Conditions: read-out: Ki, CF3CH2OH; pH 7.3, 30 °C, 83 mM potassium phosphate, 40 mM KCl; cited from earlier work.

Sequence of H44R/H48Q yeast alcohol dehydrogenase (P00330 2-348 H45R/H49Q): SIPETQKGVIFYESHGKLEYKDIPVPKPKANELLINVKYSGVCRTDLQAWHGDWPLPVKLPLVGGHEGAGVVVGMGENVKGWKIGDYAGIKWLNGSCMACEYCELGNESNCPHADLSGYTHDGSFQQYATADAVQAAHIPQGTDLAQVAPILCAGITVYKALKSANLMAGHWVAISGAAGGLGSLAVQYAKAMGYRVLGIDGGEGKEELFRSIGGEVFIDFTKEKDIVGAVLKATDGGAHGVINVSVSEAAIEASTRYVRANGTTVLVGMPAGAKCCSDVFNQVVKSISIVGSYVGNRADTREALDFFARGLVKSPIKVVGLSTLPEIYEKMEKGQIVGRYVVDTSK

The Ki is a measure of affinity in units of concentration, obtained from inhibition or displacement. Take `OCC(F)(F)F` [CF3CH2OH, 2,2,2-trifluoroethanol, reference compound]: the Ki in test [1] was 33 mM; in test [2] it was 2.5 mM; in test [3] it was 55 mM; in test [4], 19 mM.
